Measured values published in patent US11168102B1, “Bicyclic heteroaryl compounds and uses thereof” (Revolution Medicines, Inc., priority 2019, dated 2021).

Biological target: SOS1 nucleotide exchange of wild-type KRAS (Homo sapiens (Human), UniProt Q07889)
Assay: Mode of action assay: inhibition of SOS1 nucleotide exchange activity (TR-FRET)
Type: biochemical
Settings: SOS1 catalytic domain (564-1049), avi-tagged KRAS (1-169), EDA-GTP-DY-647P1; three replicates

Sequence of SOS1 nucleotide exchange of wild-type KRAS (Q07889 564-1049): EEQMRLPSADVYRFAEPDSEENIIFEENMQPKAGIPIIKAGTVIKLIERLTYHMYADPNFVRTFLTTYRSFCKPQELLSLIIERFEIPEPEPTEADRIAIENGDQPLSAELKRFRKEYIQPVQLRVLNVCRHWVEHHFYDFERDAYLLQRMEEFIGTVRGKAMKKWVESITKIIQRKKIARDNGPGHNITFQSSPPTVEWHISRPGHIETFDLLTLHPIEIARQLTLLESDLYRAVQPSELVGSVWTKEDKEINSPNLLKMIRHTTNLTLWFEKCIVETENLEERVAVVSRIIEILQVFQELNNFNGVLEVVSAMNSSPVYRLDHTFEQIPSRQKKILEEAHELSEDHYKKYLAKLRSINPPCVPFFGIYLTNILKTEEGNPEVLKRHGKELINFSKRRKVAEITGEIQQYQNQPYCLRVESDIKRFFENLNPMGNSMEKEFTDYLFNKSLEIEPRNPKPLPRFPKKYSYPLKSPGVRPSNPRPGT

Row | Compound | IC50 [nM]
1 | C[C@@H](Nc1ncnc2c1cc(C(=O)N1CCc3ncccc31)c(=O)n2C)c1cccc(C(F)F)c1F [Example 26-26] | 72.2
2 | C[C@@H](Nc1ncnc2c1cc(C1(F)CCS(=O)(=NC3CC3)CC1)c(=O)n2C)c1cccc(C(F)F)c1F (single isomer, unassigned) [Example 57] | 7.65
3 | C[C@@H](Nc1ncnc2c1cc(-c1ccc[nH]1)c(=O)n2C)c1cccc(C(F)F)c1F [Example 21-1] | 1070
4 | COc1ccc(-c2cc3c(N[C@H](C)c4cccc(C(F)F)c4F)ncnc3n(C)c2=O)cc1OC [Example 21-10] | 532
5 | Cc1nc(N[C@H](C)c2cccc(C(F)F)c2F)c2cc(C3CCN(C4COC4)CC3)c(=O)n(C)c2n1 [Example 8-14] | 81.2
6 | C[C@@H](Nc1ncnc2c1cc(-c1ccccc1C#N)c(=O)n2C)c1cccc(C(F)F)c1F [Example 21-6] | 86.4
7 | Cc1nc(N[C@H](C)c2cccc(C(F)F)c2F)c2cc(C3CCN(C)CC3)c(=O)n(C)c2n1 [Example 8-2] | 21.2
8 | COC[C@H]1CCCN1C(=O)c1cc2c(N[C@H](C)c3cccc(C(F)F)c3F)ncnc2n(C)c1=O [Example 26-24] | 54.1
9 | C[C@@H](Nc1ncnc2c1cc(C(=O)N1CC(F)C1)c(=O)n2C)c1cccc(C(F)F)c1F [Example 26-1] | 162
10 | C[C@@H](Nc1ncnc2c1cc(C1=CCNC1)c(=O)n2C)c1cccc(C(F)F)c1F [Example 1-1] | 41.5
11 | C[C@@H](Nc1ncnc2c1cc(C(=O)N1C3CCC1COC3)c(=O)n2C)c1cccc(C(F)F)c1F [Example 26-12] | 107
12 | C[C@@H](Nc1ncnc2c1cc(C1=C[C@@H]3CNC[C@H](C1)O3)c(=O)n2C)c1cccc(C(F)F)c1F [Example 1-15] | 39.8
13 | C[C@@H](Nc1ncnc2c1cc(C1CCN(C3COC3)CC1)c(=O)n2C)c1cccc(C(F)F)c1F [Example 8-8] | 30.5
14 | Cc1nc(N[C@H](C)c2cccc(C(F)F)c2F)c2cc(N3CCN(C)CC3=O)c(=O)n(C)c2n1 [Example 2-5] | 112
15 | C[C@@H](Nc1ncnc2c1cc(C1CCOCC1)c(=O)n2C)c1cccc(C(F)F)c1F [Example 1-30] | 45.8
16 | CC(=O)N1CCC(c2cc3c(N[C@H](C)c4cccc(C(F)F)c4F)nc(C)nc3n(C)c2=O)CC1 [Example 8-9] | 53.6
17 | C[C@@H](Nc1ncnc2c1cc(C1=CCNCC1)c(=O)n2C)c1cccc(C(F)F)c1F [Example 1-3] | 21.2
18 | C[C@@H]1CN(C(=O)c2cc3c(N[C@H](C)c4cccc(C(F)F)c4F)ncnc3n(C)c2=O)C[C@@H](C)O1 [Example 26-21] | 24.9
19 | CC(=O)N1CC=C(c2cc3c(N[C@H](C)c4cccc(C(F)F)c4F)nc(C)nc3n(C)c2=O)CC1 [Example 1-21] | 95.6
20 | C[C@@H](Nc1ncnc2c1cc(C1CCN(CCF)CC1)c(=O)n2C)c1cccc(C(F)F)c1F [Example 8-4] | 7.66
21 | C[C@@H](Nc1ncnc2c1cc(C1CCN(CC(F)F)CC1)c(=O)n2C)c1cccc(C(F)F)c1F [Example 8-13] | 39.8
22 | Cc1nc(N[C@H](C)c2cccc(C(F)F)c2F)c2cc(-c3cncnc3)c(=O)n(C)c2n1 [Example 21-4] | 172
23 | C[C@@H](Nc1ncnc2c1cc(-c1ccc3nonc3c1)c(=O)n2C)c1cccc(C(F)F)c1F [Example 21-8] | 235
24 | Cc1nc(N[C@H](C)c2cccc(C(F)F)c2F)c2cc(-c3ccnnc3)c(=O)n(C)c2n1 [Example 21-3] | 120
25 | C[C@@H](Nc1ncnc2c1cc(C1CCN(S(C)(=O)=O)CC1)c(=O)n2C)c1cccc(C(F)F)c1F [Example 8-15] | 40.1
26 | C[C@@H](Nc1ncnc2c1cc(-c1cnc(F)nc1)c(=O)n2C)c1cccc(C(F)F)c1F [Example 21-5] | 126

Biological target: SOS1 catalytic domain (residues 564-1049) (Homo sapiens (Human), UniProt Q07889)
Assay: Potency assay: binding affinity to SOS1 by Surface Plasmon Resonance (SPR)
Settings: avi-tagged SOS1 catalytic domain immobilized on sensor chip; 1:1 equilibrium binding fit

Sequence of SOS1 catalytic domain (residues 564-1049) (Q07889 564-1049): as above

Row | Compound | Kd [nM]
27 | C[C@@H](Nc1ncnc2c1cc(C(=O)N1CCc3ncccc31)c(=O)n2C)c1cccc(C(F)F)c1F [Example 26-26] | 269
28 | C[C@@H](Nc1ncnc2c1cc(C1(F)CCS(=O)(=NC3CC3)CC1)c(=O)n2C)c1cccc(C(F)F)c1F (single isomer, unassigned) [Example 57] | 9.19
29 | C[C@@H](Nc1ncnc2c1cc(-c1ccc[nH]1)c(=O)n2C)c1cccc(C(F)F)c1F [Example 21-1] | 1160
30 | COc1ccc(-c2cc3c(N[C@H](C)c4cccc(C(F)F)c4F)ncnc3n(C)c2=O)cc1OC [Example 21-10] | 849
31 | Cc1nc(N[C@H](C)c2cccc(C(F)F)c2F)c2cc(C3CCN(C4COC4)CC3)c(=O)n(C)c2n1 [Example 8-14] | 200
32 | C[C@@H](Nc1ncnc2c1cc(-c1ccccc1C#N)c(=O)n2C)c1cccc(C(F)F)c1F [Example 21-6] | 118
33 | Cc1nc(N[C@H](C)c2cccc(C(F)F)c2F)c2cc(C3CCN(C)CC3)c(=O)n(C)c2n1 [Example 8-2] | 64.4
34 | COC[C@H]1CCCN1C(=O)c1cc2c(N[C@H](C)c3cccc(C(F)F)c3F)ncnc2n(C)c1=O [Example 26-24] | 160
35 | C[C@@H](Nc1ncnc2c1cc(C(=O)N1CC(F)C1)c(=O)n2C)c1cccc(C(F)F)c1F [Example 26-1] | 285
36 | C[C@@H](Nc1ncnc2c1cc(C1=CCNC1)c(=O)n2C)c1cccc(C(F)F)c1F [Example 1-1] | 59.1
37 | C[C@@H](Nc1ncnc2c1cc(C(=O)N1C3CCC1COC3)c(=O)n2C)c1cccc(C(F)F)c1F [Example 26-12] | 158
38 | C[C@@H](Nc1ncnc2c1cc(C1=C[C@@H]3CNC[C@H](C1)O3)c(=O)n2C)c1cccc(C(F)F)c1F [Example 1-15] | 6.29
39 | C[C@@H](Nc1ncnc2c1cc(C1CCN(C3COC3)CC1)c(=O)n2C)c1cccc(C(F)F)c1F [Example 8-8] | 62
40 | Cc1nc(N[C@H](C)c2cccc(C(F)F)c2F)c2cc(N3CCN(C)CC3=O)c(=O)n(C)c2n1 [Example 2-5] | 97
41 | C[C@@H](Nc1ncnc2c1cc(C1CCOCC1)c(=O)n2C)c1cccc(C(F)F)c1F [Example 1-30] | 20.1
42 | CC(=O)N1CCC(c2cc3c(N[C@H](C)c4cccc(C(F)F)c4F)nc(C)nc3n(C)c2=O)CC1 [Example 8-9] | 120
43 | C[C@@H](Nc1ncnc2c1cc(C1=CCNCC1)c(=O)n2C)c1cccc(C(F)F)c1F [Example 1-3] | 7.86
44 | C[C@@H]1CN(C(=O)c2cc3c(N[C@H](C)c4cccc(C(F)F)c4F)ncnc3n(C)c2=O)C[C@@H](C)O1 [Example 26-21] | 114
45 | CC(=O)N1CC=C(c2cc3c(N[C@H](C)c4cccc(C(F)F)c4F)nc(C)nc3n(C)c2=O)CC1 [Example 1-21] | 137
46 | C[C@@H](Nc1ncnc2c1cc(C1CCN(CCF)CC1)c(=O)n2C)c1cccc(C(F)F)c1F [Example 8-4] | 29.4
47 | C[C@@H](Nc1ncnc2c1cc(C1CCN(CC(F)F)CC1)c(=O)n2C)c1cccc(C(F)F)c1F [Example 8-13] | 156
48 | Cc1nc(N[C@H](C)c2cccc(C(F)F)c2F)c2cc(-c3cncnc3)c(=O)n(C)c2n1 [Example 21-4] | 272
49 | C[C@@H](Nc1ncnc2c1cc(-c1ccc3nonc3c1)c(=O)n2C)c1cccc(C(F)F)c1F [Example 21-8] | 336
50 | Cc1nc(N[C@H](C)c2cccc(C(F)F)c2F)c2cc(-c3ccnnc3)c(=O)n(C)c2n1 [Example 21-3] | 330
51 | C[C@@H](Nc1ncnc2c1cc(C1CCN(S(C)(=O)=O)CC1)c(=O)n2C)c1cccc(C(F)F)c1F [Example 8-15] | 90.4
52 | C[C@@H](Nc1ncnc2c1cc(-c1cnc(F)nc1)c(=O)n2C)c1cccc(C(F)F)c1F [Example 21-5] | 115

Test system: cellular pERK in PC-9 cells (EGFR Ex19Del)
Assay: Potency assay: pERK (AlphaLISA SureFire Ultra p-ERK1/2) in PC-9 cells
Type: cell-based
Settings: Homo sapiens, PC-9, 1 h, PC-9 cells (EGFR Ex19Del), 1 hour incubation, AlphaLISA SureFire Ultra p-ERK1/2; read-out: SOS1 pERK IC50

Row | Compound | IC50 [nM]
53 | C[C@@H](Nc1ncnc2c1cc(C(=O)N1CCc3ncccc31)c(=O)n2C)c1cccc(C(F)F)c1F [Example 26-26] | 228
54 | C[C@@H](Nc1ncnc2c1cc(C1(F)CCS(=O)(=NC3CC3)CC1)c(=O)n2C)c1cccc(C(F)F)c1F (single isomer, unassigned) [Example 57] | 42.6
55 | COc1ccc(-c2cc3c(N[C@H](C)c4cccc(C(F)F)c4F)ncnc3n(C)c2=O)cc1OC [Example 21-10] | 611
56 | Cc1nc(N[C@H](C)c2cccc(C(F)F)c2F)c2cc(C3CCN(C)CC3)c(=O)n(C)c2n1 [Example 8-2] | 265
57 | COC[C@H]1CCCN1C(=O)c1cc2c(N[C@H](C)c3cccc(C(F)F)c3F)ncnc2n(C)c1=O [Example 26-24] | 794
58 | C[C@@H](Nc1ncnc2c1cc(C(=O)N1CC(F)C1)c(=O)n2C)c1cccc(C(F)F)c1F [Example 26-1] | 994
59 | C[C@@H](Nc1ncnc2c1cc(C1=CCNC1)c(=O)n2C)c1cccc(C(F)F)c1F [Example 1-1] | 140
60 | C[C@@H](Nc1ncnc2c1cc(C(=O)N1C3CCC1COC3)c(=O)n2C)c1cccc(C(F)F)c1F [Example 26-12] | 861
61 | C[C@@H](Nc1ncnc2c1cc(C1=C[C@@H]3CNC[C@H](C1)O3)c(=O)n2C)c1cccc(C(F)F)c1F [Example 1-15] | 217
62 | Cc1nc(N[C@H](C)c2cccc(C(F)F)c2F)c2cc(N3CCN(C)CC3=O)c(=O)n(C)c2n1 [Example 2-5] | 824
63 | C[C@@H](Nc1ncnc2c1cc(C1CCOCC1)c(=O)n2C)c1cccc(C(F)F)c1F [Example 1-30] | 143
64 | C[C@@H](Nc1ncnc2c1cc(C1=CCNCC1)c(=O)n2C)c1cccc(C(F)F)c1F [Example 1-3] | 50.3
65 | C[C@@H]1CN(C(=O)c2cc3c(N[C@H](C)c4cccc(C(F)F)c4F)ncnc3n(C)c2=O)C[C@@H](C)O1 [Example 26-21] | 520
66 | CC(=O)N1CC=C(c2cc3c(N[C@H](C)c4cccc(C(F)F)c4F)nc(C)nc3n(C)c2=O)CC1 [Example 1-21] | 173
